Laboratory results: US12364699B2, “Method of treating hair loss disorders” (Sun Pharmaceutical Industries, Inc., priority 2023, dated 2025)

Legend:
[1] = Renal impairment study: single dose PK of CTP-543 and metabolites C-21714, C-21717; conditions: single 12 mg oral dose of CTP-543; normal renal function N = 8; geometric mean (geometric CV %)
From the text: The study enrolled 8 subjects in the normal renal function cohort, and 8 subjects in the moderate impaired renal function cohort.
The primary endpoint of this study was single dose PK exposure parameters: Cmax, AUC(0-Tlast), and AUC(0-∞).
The secondary endpoints of this study were: • Adverse Events, clinical laboratory findings, physical examinations, ECGs, and vital signs. • Other PK parameters, such as, but not limited to: Tmax, λz, t1/2, CL/F, and Vz/F.
(§1) All subjects had samples collected for PK.
PK parameters were determined using non-compartmental analysis (NCA) methods based on individual plasma concentration-time data for all PK analytes.

[2] = test system: plasma protein; assay: Renal impairment study: plasma protein binding of CTP-543; assay type: in vitro ADME, human; conditions: 2 hours post-dose; moderate renal impairment vs matched controls with normal renal function
From the text: as §1

[3] = test system: adult subjects with moderate to severe AA; assay: Phase III trial: Hair Satisfaction Patient Reported Outcome (SPRO); assay type: in vivo, human; conditions: for percentage of subjects with a ≥2 point change from baseline on SPRO: 12 mg BID
From the text: The SPRO is a single-item questionnaire answered by the subject and designed to measure how satisfied Alopecia Areata subjects are with their hair at the time of the assessment. Subjects answer questions on a scale of 1 to 5, representing “Very satisfied” to “Very dissatisfied.” Satisfaction categories 1-5 of the scale were defined as follows: 1=“Very Satisfied”; 2=“Satisfied”; 3=“Neither Satisfied nor Dissatisfied”; 4=Dissatisfied”; and 5=“Very Dissatisfied”.
The results of the SPRO was analyzed in three different ways: 1) the percentage of responders, 2) the change from baseline, and 3) the percentage of subjects achieving a ≥2.0 point change from baseline.
A Phase III trial was conducted to assess the efficacy and safety of CTP-543 in adult subjects with moderate to severe AA. Approximately 440 adult male and female subjects 18 to 65 years of age, inclusive, with moderate to severe AA participated in the study. Subjects with definitive diagnosis of AA, and at least 50% hair loss, as defined by a SALT score ≥50, who met all of the inclusion criteria and none of the exclusion criteria participated in the study.
The Screening Period lasted up to 28 days prior to initiation of study drug. […] Randomization was stratified by scalp hair loss into 1 of the following 2 categories: 1) partial scalp hair loss (SALT ≥50 and <95), 2) complete or near complete scalp hair loss (SALT ≥95).
The key secondary efficacy endpoints were the percentage of responders (defined as “satisfied” or “very satisfied”) on the Hair Satisfaction Patient Reported Outcome (SPRO) scale at Week 24, 20, 16, 12, and 8.
The Hair Satisfaction Patient Reported Outcome (SPRO) was also determined based on the 5-point SPRO scale from baseline through Week 24 among primary endpoint responders. The subjects that received a SALT score ≤20 at Week 24 in the THRIVE-AA1 and THRIVE-AA2 trials were included in the analysis. […]
The SPRO was evaluated in 3 different ways: the percentage of responders, the change from baseline, and the percentage of subjects achieving a ≥2.0 point change from baseline.

[4] = test system: subjects with AA; assay: Open-label extension (OLE) studies: SALT score; assay type: in vivo, human; conditions: 12 mg BID in OLE, placebo in the earlier studies, 52 weeks
From the text: Subjects completing 24 weeks of treatment with […]
(§2) The qualifying clinical trials including the following: 1. NCT03137381; 2. NCT03811912; 3. NCT03941548; 4. NCT04784533; 5. NCT04518995; and 6. NCT04797650 (all available a at https://clinicaltrials.gov).
The OLE Efficacy Population is defined as all subjects who received at least one dose of deuruxolitinib and had at least one post-baseline SALT assessment in OLE. The data analyses include subjects' data from the qualifying trial. Missing SALT scores were not imputed. The number of subjects decreases over time due to missing data, patient discontinuations, or subjects not yet at the later timepoints. Any SALT data after a qualifying dose change in the OLE was censored for all figures included here, except those showing the overall treatment sequence. A “qualifying dose change” referred to herein can be placebo in any qualifying trial to any dose of deuruxolitinib in the OLE (includes subjects who switched doses), or any dose of deuruxolitinib in a qualifying trial to any dose of deuruxolitinib in the OLE. Various analyses using SALT scores were conducted to best estimate the overall long-term effect of deuruxolitinib considering the issues with dose changes and decreasing patient numbers over time. “Any Dose” analysis tracks all active subjects over time pooled across the two doses. […]

[5] = test system: subjects with AA; assay: Open-label extension (OLE) studies: safety; assay type: in vivo, human
From the text: as §2

## [2H]C1([2H])C([C@@H](CC#N)n2cc(-c3ncnc4[nH]ccc34)cn2)C([2H])([2H])C([2H])([2H])C1([2H])[2H] [CTP-543, (R)-3-(4-(7H-pyrrolo[2,3-d]pyrimidin-4-yl)-1H-pyrazol-1-yl)-3-(cyclopentyl-2,2,3,3,4,4,5,5-d8) propanenitrile]
[1]
  Clast: 0.898 (116.3) ng/mL
[2]
  plasma protein binding, difference between cohorts: no meaningful differences
[3]; 12 mg BID (N = 127), Week 24, non-missing data
  SPRO Responders: Yes: 62 (51.7) n (%)
[3]; week 16, non-missing data
  percentage of subjects with a ≥2 point change from baseline on SPRO: 57.4%
[3]; week 24, non-missing data
  percentage of subjects with a ≥2 point change from baseline on SPRO: 61.7%
[4]
  mean SALT score: 43.0
[5]; OLE studies
  number of serious treatment-related TEAEs: remains low
  tolerability: generally well tolerated
[5]; all at the 12 mg BID dose, following ≥52 weeks of dosing
  subjects with related thrombotic events: four
[5]; integrated analyses
  treatment-emergent adverse event findings: consistent with the safety profiles observed for other JAK inhibitors
